Data on six molecules can be found in the supplement of paper PMC4862054.

The structures appear in SMILES notation.

Test in all cases: drug sensitivity score (DSS), CellTox Green (DSS (AUC-based score)); higher = stronger drug effect (viability inhibition or cytotoxicity); extreme values may be limits of the assay
Common to all, as to details: incubation time: 72 h

One assay deals with BT-474. In a few lines:
(§1)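 Plates with 384 wells held compound at 5 concentrations in 10-fold steps over a 10,000-fold range specific to each compound. Breast cancer cell lines were added in 20 µl suspension and incubated 72 h, then read for CellTox Green and CellTiter-Glo signals, with each plate normalised to 0.1 % DMSO and a positive kill control. The drug sensitivity score is based on the area under the fitted dose-response curve.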

A further assay relates to CAL-120. The method, boiled down: as §1
The next assay deals with CAL-51. In a few lines: as §1
The subject of another assay is DU-4475. The method, boiled down:
as §1

A further assay relates to HCC1143. In a few lines:
as §1

The test system of another assay is HCC1599. In a few lines:
as §1

The subject of another assay is HDQ-P1. The method, boiled down:
as §1

Another assay relates to MCF-10A. In a few lines:
as §1

For the next assay, the system named is MDA-MB-453. The method, boiled down: as §1
For a further assay, the system named is MFM-223. The method, boiled down:
as §1

As for `C=CCNC1=C2C[C@@H](C)C[C@H](OC)[C@H](O)[C@@H](C)/C=C(\C)[C@H](OC(N)=O)[C@@H](OC)/C=C\C=C(/C)C(=O)NC(=CC1=O)C2=O` [Tanespimycin], the drug sensitivity score in the assay with BT-474 stood at 7.84; in the assay on CAL-120, 0.533; in the assay on CAL-51 it was 10.9; with DU-4475, 7.07; with HCC1143, 2.55; in the assay on HCC1599, 0. For the same molecule, the drug sensitivity score came out at 10.1 in the assay with HDQ-P1, 15.9 in the assay on MCF-10A, 0 with MDA-MB-453 and 0 in the assay on MFM-223.

As for `CO[C@H]1C[C@@H]2CC[C@@H](C)[C@@](O)(O2)C(=O)C(=O)N2CCCC[C@H]2C(=O)O[C@H]([C@H](C)C[C@@H]2CC[C@@H](OC(=O)C(C)(CO)CO)[C@H](OC)C2)CC(=O)[C@H](C)/C=C(\C)[C@@H](O)[C@@H](OC)C(=O)[C@H](C)C[C@H](C)/C=C/C=C/C=C/1C` [Temsirolimus], the drug sensitivity score in the assay with BT-474, with CAL-120, with CAL-51, with DU-4475, with HCC1143 and with HCC1599 was 0 each time. Further, the drug sensitivity score with HDQ-P1, with MCF-10A, with MDA-MB-453 and with MFM-223 was 0 in each case.

`O=C(c1ccc(C(=O)N2CCC(N3CCCC3)CC2)c(Nc2ccccc2)c1)N1CCC(N2CCCC2)CC1` [UNC1215]: the drug sensitivity score came out at 0 with BT-474; 0 in the assay on CAL-120; 0 in the assay on CAL-51; 0 in the assay on DU-4475; 0.868 in the assay on HCC1143; 0 in the assay on HCC1599. For the same molecule, the drug sensitivity score in the assay on HDQ-P1, in the assay on MCF-10A, in the assay on MDA-MB-453 and with MFM-223 was 0 in each case.

As for `C[C@]1(c2nc3c(C(N)=O)cccc3[nH]2)CCCN1` [Veliparib], the drug sensitivity score in the assay with BT-474, in the assay on CAL-120, with CAL-51, in the assay on DU-4475, in the assay on HCC1143 and in the assay on HCC1599 was 0 in each case. The drug sensitivity score in the assay with HDQ-P1, with MCF-10A, in the assay on MDA-MB-453 and in the assay on MFM-223 was 0 in each case.

In the case of `CC[C@]1(O)C[C@@H]2CN(CCc3c([nH]c4ccccc34)[C@@](C(=O)OC)(c3cc4c(cc3OC)N(C)[C@H]3[C@@](O)(C(=O)OC)[C@H](OC(C)=O)[C@]5(CC)C=CCN6CC[C@]43[C@@H]65)C2)C1` [Vinblastine], the drug sensitivity score with BT-474 was determined as 8.39; in the assay on CAL-120, 3.49; in the assay with CAL-51, 22.3; in the assay on DU-4475, 0; with HCC1143, 9.2; in the assay with HCC1599, 2.86. Also, the drug sensitivity score came out at 0 in the assay with HDQ-P1, 12.5 with MCF-10A, 0 with MDA-MB-453 and 12.2 in the assay on MFM-223.

As for `CS(=O)(=O)c1ccc(C(=O)Nc2ccc(Cl)c(-c3ccccn3)c2)c(Cl)c1` [Vismodegib], the drug sensitivity score in the assay with BT-474, with CAL-120, with CAL-51, in the assay with DU-4475, with HCC1143 and in the assay on HCC1599 was 0 each time. Further, the drug sensitivity score with HDQ-P1, in the assay with MCF-10A, in the assay with MDA-MB-453 and in the assay with MFM-223 was 0 each time.
